Source: the supplement of paper PMC11451515

System: SEM cells
Test: cell viability relative to DMSO control; higher = less cytotoxic
Conditions: 48 h
Method in brief: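 Library compounds in DMSO were pin-dosed in an 11-point threefold series (47 μM to 0.79 nM) onto leukemia cells in 1536-well plates (5 μl). Plates held 500 cells/well of NOMO1 or SEM or 1000 cells/well of P12-Ichikawa, each adapted for at least four passages in each medium. Luminescence was read with CellTiter-Glo One after 48 h at 37°C. Viability means the per-plate percentage relative to DMSO wells, using cell-free wells as background.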

[1] = HPLM + 10% dialyzed FBS, 0.000781 µM
[2] = HPLM + 10% dialyzed FBS, 0.00234 µM
[3] = HPLM + 10% dialyzed FBS, 0.00702 µM
[4] = HPLM + 10% dialyzed FBS, 0.0211 µM
[5] = HPLM + 10% dialyzed FBS, 0.0632 µM
[6] = HPLM + 10% dialyzed FBS, 0.19 µM
[7] = HPLM + 10% dialyzed FBS, 0.569 µM
[8] = HPLM + 10% dialyzed FBS, 1.71 µM
[9] = HPLM + 10% dialyzed FBS, 5.12 µM
[10] = HPLM + 10% dialyzed FBS, 15.4 µM
[11] = HPLM + 10% dialyzed FBS, 46.1 µM
[12] = RPMI 5 mM glucose + 10% FBS, 0.000781 µM
[13] = RPMI 5 mM glucose + 10% FBS, 0.00234 µM
[14] = RPMI 5 mM glucose + 10% FBS, 0.00702 µM
[15] = RPMI 5 mM glucose + 10% FBS, 0.0211 µM
[16] = RPMI 5 mM glucose + 10% FBS, 0.0632 µM
[17] = RPMI 5 mM glucose + 10% FBS, 0.19 µM
[18] = RPMI 5 mM glucose + 10% FBS, 0.569 µM
[19] = RPMI 5 mM glucose + 10% FBS, 1.71 µM
[20] = RPMI 5 mM glucose + 10% FBS, 5.12 µM
[21] = RPMI 5 mM glucose + 10% FBS, 15.4 µM
[22] = RPMI 5 mM glucose + 10% FBS, 46.1 µM
[23] = RPMI 5 mM glucose + 10% dialyzed FBS, 0.000781 µM
[24] = RPMI 5 mM glucose + 10% dialyzed FBS, 0.00234 µM
[25] = RPMI 5 mM glucose + 10% dialyzed FBS, 0.00702 µM
[26] = RPMI 5 mM glucose + 10% dialyzed FBS, 0.0211 µM
[27] = RPMI 5 mM glucose + 10% dialyzed FBS, 0.0632 µM
[28] = RPMI 5 mM glucose + 10% dialyzed FBS, 0.19 µM
[29] = RPMI 5 mM glucose + 10% dialyzed FBS, 0.569 µM
[30] = RPMI 5 mM glucose + 10% dialyzed FBS, 1.71 µM
[31] = RPMI 5 mM glucose + 10% dialyzed FBS, 5.12 µM
[32] = RPMI 5 mM glucose + 10% dialyzed FBS, 15.4 µM
[33] = RPMI 5 mM glucose + 10% dialyzed FBS, 46.1 µM

Compound | cell viability [1] [%] | cell viability [2] [%] | cell viability [3] [%] | cell viability [4] [%] | cell viability [5] [%] | cell viability [6] [%] | cell viability [7] [%] | cell viability [8] [%] | cell viability [9] [%] | cell viability [10] [%] | cell viability [11] [%] | cell viability [12] [%] | cell viability [13] [%] | cell viability [14] [%] | cell viability [15] [%] | cell viability [16] [%] | cell viability [17] [%] | cell viability [18] [%] | cell viability [19] [%] | cell viability [20] [%] | cell viability [21] [%] | cell viability [22] [%] | cell viability [23] [%] | cell viability [24] [%] | cell viability [25] [%] | cell viability [26] [%] | cell viability [27] [%] | cell viability [28] [%] | cell viability [29] [%] | cell viability [30] [%] | cell viability [31] [%] | cell viability [32] [%] | cell viability [33] [%]
CN(C)CCCNC(=O)c1ccc(-c2cc(O)c3ncccc3c2)cc1 | 107 | 110 | 112 | 103 | 99.7 | 103 | 104 | 91.6 | 92.6 | 81.9 | 40.2 | 107 | 107 | 109 | 103 | 117 | 112 | 120 | 115 | 104 | 78.2 | 27.1 | 95.5 | 103 | 95.2 | 113 | 95.2 | 100 | 103 | 105 | 93.3 | 74.1 | 33
CC[C@@]1(O)C[C@H](O[C@H]2C[C@H](N(C)C)[C@H](O[C@H]3C[C@H](O)[C@H](O[C@H]4CCC(=O)[C@H](C)O4)[C@H](C)O3)[C@H](C)O2)c2c(cc3c(c2O)C(=O)c2c(O)cccc2C3=O)[C@H]1C(=O)OC | 79.8 | 68.5 | 86.2 | 77.9 | 48.4 | 50 | 26.5 | 11.4 | 13.5 | 24 | 15.8 | 81 | 65.9 | 85.2 | 72.5 | 46.2 | 54.4 | 32.7 | 18.1 | 23.2 | 20.2 | 19.5 | 85.5 | 48.6 | 83.7 | 66.7 | 46.2 | 51.3 | 26.2 | 11.8 | 12.2 | 15.4 | 12.9
C[S+]([O-])c1ccc(-c2nc(-c3ccc(F)cc3)c(-c3ccncc3)[nH]2)cc1 (stereo unspecified) | 83.2 | 84.2 | 91.8 | 84 | 102 | 81.5 | 86.9 | 62 | 40.9 | 4.09 | 2.22 | 103 | 106 | 102 | 105 | 107 | 79.3 | 75.1 | 41 | 21.9 | 3.29 | 2.41 | 92.6 | 99.7 | 89.8 | 97.8 | 98.1 | 77 | 79.2 | 59.4 | 26.1 | 3.71 | 2.23
CO[C@H]1C[C@@H]2CC[C@@H](C)[C@@](O)(O2)C(=O)C(=O)N2CCCC[C@H]2C(=O)O[C@H]([C@H](C)C[C@@H]2CC[C@@H](OCCO)[C@H](OC)C2)CC(=O)[C@H](C)/C=C(/C)[C@@H](O)[C@@H](OC)C(=O)[C@H](C)C[C@H](C)\C=C/C=C\C=C/1C | 47.5 | 91.9 | 74.6 | 65.2 | 77.2 | 58.6 | 42.7 | 42.1 | 20.8 | 10.7 | 14.2 | 51.7 | 86.2 | 71.1 | 71.7 | 75 | 64.9 | 41.5 | 28.4 | 17.2 | 12.9 | 12.6 | 50.8 | 84 | 73.8 | 65.4 | 68.3 | 63.4 | 49.5 | 37 | 13.7 | 10.4 | 11.8
CC(NCc1ccc2c(c1)[nH]/c(=N\C(=O)c1ccc(-c3cn[nH]c3)s1)n2CC(C)(C)O)C(C)(C)C (stereo unspecified) | 112 | 89.6 | 62.7 | 52.4 | 47.7 | 41 | 24.9 | 10.9 | 8.32 | 2.2 | 2.08 | 96.7 | 112 | 76.3 | 58.5 | 48 | 36.5 | 31.3 | 14.9 | 4.21 | 1.66 | 1.98 | 122 | 85.4 | 79.8 | 42.4 | 45.7 | 41.5 | 27.2 | 16.2 | 6.16 | 1.94 | 1.53
CC(C)(C)NC(=O)[C@H]1CC[C@H]2[C@@H]3CC[C@H]4NC(=O)\C=C/[C@]4(C)[C@H]3CC[C@]12C | 88.1 | 89.3 | 98.7 | 92 | 95.8 | 94.4 | 101 | 88.3 | 102 | 104 | 101 | 91.9 | 92.4 | 104 | 95.5 | 97.3 | 90.2 | 91.5 | 99.7 | 94 | 106 | 90.9 | 95.4 | 87.6 | 91.7 | 94.2 | 104 | 99.8 | 104 | 115 | 111 | 99.2 | 91.2
O=C1NC(=O)/C(=C/c2cccc(C(F)(F)F)c2)S1 | 100 | 93.3 | 96.5 | 108 | 101 | 102 | 100 | 100 | 107 | 89.1 | 66.7 | 99.5 | 100 | 110 | 108 | 112 | 108 | 115 | 104 | 108 | 98.9 | 59.7 | 93.7 | 106 | 106 | 115 | 99.6 | 94.4 | 102 | 108 | 109 | 102 | 62.5
